Measurements published in patent US6998383B2, “Inhibitors of receptor activator of NF-κB and uses thereof” (Research Development Corporation, priority 2001, dated 2006).

How the values were obtained:
RAW264.7 cells = assay: RANKL-mediated osteoclast differentiation in RAW264.7 cells (TRAP staining); format: cell-based, mouse
Description: RAW264.7 cells were plated in 12-well plates and stimulated with RANKL (30 ng/ml) for 4 days. Cells were stained for TRAP essentially as described below. Photographs were taken using a 10× objective lens.
RAW cells were plated as described in FIG. 2A and treated with RANKL in the presence of 1, 30, or 100 μM of peptides as indicated. On day 4 cells were stained and evaluated as in FIG. 2A.
RAW264.7 cells were plated in 48-well plates in triplicate and treated with RANKL in the presence of increasing amounts of the indicated peptides. After 4-5 days, the cells were stained for TRAP and the total numbers of osteoclasts were counted as described below.
Primary bone marrow monocytes (BM) or RAW264.7 cells were cultured in 48-well dishes at a density of 1×10^5 cells/well or 2×10^3 cells/well, and then treated with the indicated factors at the beginning of the culture and during a medium change on day 3. Osteoclast formation was assessed by counting the total number of multi-nucleated (>3 nuclei), TRAP-positive cells present per well between day 7 and 10 (BM) or on day 5 (RAW264.7) (30).
The mouse macrophage cell line RAW264.7 express the receptor activator of NF-κB on their cell surface and when stimulated with the receptor activator of NF-κB ligand differentiate into multi-nucleated, tartrate resistant acid phosphatase (TRAP) positive osteoclasts after 4-5 days (FIG. 2A). To determine whether L-T6DP-1 could inhibit RANKL-mediated osteoclast differentiation, RAW264.7 cells were co-cultured with increasing concentrations of either L-T6DP-1. or T6DP-1 and 30 ng/ml RANKL for 4 days.

[1] = molecular target: T1, TRAF5 binding to the cytoplasmic domain of RANK (Mus musculus, UniProt P70191); assay: Competitive GST-pull down assay, TRAF5 binding to RANK cytoplasmic domain; conditions: 100 μM peptide, FLAG-TRAF5 293 cell extract (FIG. 4C)
T1 construct: expressed in transfected cells; host or cells: human 293 cells (TRAF lysate); The GST-RANK fusion was purified as previously described
T1 sequence (P70191 whole entry, the tested form may be a part): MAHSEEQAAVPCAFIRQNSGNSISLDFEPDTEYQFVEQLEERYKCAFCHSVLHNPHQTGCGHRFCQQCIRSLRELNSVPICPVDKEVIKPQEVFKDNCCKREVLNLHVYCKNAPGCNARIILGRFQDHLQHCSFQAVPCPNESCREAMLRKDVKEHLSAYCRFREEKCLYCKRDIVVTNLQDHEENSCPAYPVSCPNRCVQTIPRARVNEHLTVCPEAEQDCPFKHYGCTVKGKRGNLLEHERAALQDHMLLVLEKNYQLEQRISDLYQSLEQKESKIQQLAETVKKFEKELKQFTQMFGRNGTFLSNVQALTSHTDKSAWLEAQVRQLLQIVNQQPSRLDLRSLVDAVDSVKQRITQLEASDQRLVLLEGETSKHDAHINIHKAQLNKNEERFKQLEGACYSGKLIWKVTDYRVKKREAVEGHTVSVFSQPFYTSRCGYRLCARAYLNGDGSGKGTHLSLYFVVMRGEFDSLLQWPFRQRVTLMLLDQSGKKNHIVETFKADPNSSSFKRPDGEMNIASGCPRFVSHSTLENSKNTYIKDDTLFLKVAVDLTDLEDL
Description: Cellular extracts from human 293 cells transfected with either FLAG-TRAF2, -TRAF5, or -TRAF6 were mixed with GST or GST-RANKed in the absence or presence of 100 μM of the indicated peptides. A GST-pull down assay was performed as described below. The bound TRAFs were visualized by immunoblotting with anti-FLAG antibodies.
Equivalent amounts of GST or GST-RANK cytoplasmic domain (GST-RANKed) fusion protein attached to 20 μl of glutathione agarose beads were mixed with lysates (50 μg) from 293 cells programmed to express the epitope-tagged TRAF protein and the indicated peptides in binding buffer (20 mM TRIS, pH 8, 150 mM NaCl, 1 mM DTT, 2 mM EDTA, and 0.1% NP-40) and allowed to rotate for 1 h at 4° C. The beads were collected by centrifugation, washed three times in binding buffer, and then washed once in low-salt buffer (20 mM TRIS, pH 8, 50 mM NaCl, and 1 mM DTT). Bound proteins were eluted with addition of SDS-sample buffer and boiled. The eluted proteins were subjected to 7.5% SDS-PAGE and western blot analysis was performed with anti-FLAG antibodies.
The cytoplasmic domain of RANK interacts with many TRAF molecules, including TRAF1, 2, 3, 5, and 6 (7-9, 11, 12). While TRAF1, 2, 3, and 5 interact with the c-terminal tail of receptor activator of NF-κB, TRAF6 interacts with a membrane proximal region of the cytoplasmic domain of the receptor activator of NF-κB. […]

JNK = assay: RANKL-mediated JNK activation in RAW264.7 cells (immune complex kinase assay, GST-Jun (1-79) substrate); format: cell-based, mouse; conditions: peptide 6 h, RANKL 10 nM 15 min (FIG. 5A)
Description: RAW264.7 cells were plated in 6-well plates and treated with the indicated peptides for 6 h, then treated with RANKL (10 nM) for 15 mm. Whole cell extracts were prepared and 30 μg of cell lysate was immunoprecipitated with anti-JNK1. In vitro kinase assays were performed using GST-Jun (1-79) as the substrate as described below.
Lysates were prepared from RAW cells stimulated with RANKL as indicated in the legends to the figures. Approximately 30 μg was then used for immunoprecipitation with indicated antibodies and protein A/G Sepharose beads for 1 h. Beads were collected by centrifugation, washed three times in lysis buffer, and then washed two times in low-salt buffer. JNK activity was analyzed using exogenous GST-Jun (1-79) as a substrate as previously described (8). Kinase activity was quantitated using a PhosphoImager and Imagequant Software (Molecular Dynamics, Sunnyvale, Calif.).
(§1) Stimulation of the receptor activator of NF-κB activates members of the MAPK family including JNK, ERK and p38 kinase. The ability of the TRAF6 binding peptides to inhibit the receptor activator of NF-κB ligand-induced JNK, ERK, and p38 kinase activation was examined in RAW264.7 cells. […] Similar to the results with JNK, only L-T6DP-1 was able to block ERK (FIG. 5B) and p38 kinase (FIG. 5C) activation induced by the receptor activator of NF-κB ligand in RAW264.7 cells.

ERK = assay: RANKL-mediated ERK activation in RAW264.7 cells (phospho-specific immunoblot); format: cell-based, mouse; conditions: peptide 6 h, RANKL 10 nM 15 min (FIG. 5B)
Description: (§2) FIG. 5B and FIG. 5C show inhibition of RANKL-mediated ERK and p38 activation by L-T6DP-1. Whole cell extracts (30 μg) from FIG. 5A were separated by 10% SDS-PAGE and electroblotted onto a nitrocellulose membrane. The membranes were first immunoblotted with the indicated phospho-specific antibody and then stripped and re-probed with the indicated antibodies as described below.
as §1

p38 kinase = assay: RANKL-mediated p38 kinase activation in RAW264.7 cells (phospho-specific immunoblot); format: cell-based, mouse; conditions: peptide 6 h, RANKL 10 nM 15 min (FIG. 5C)
Description: as §2, §1

## L-T6DP-1: Kaposi fibroblast growth factor signal sequence hydrophobic domain attached to murine RANK peptide containing the known TRAF6 binding domain (AAVALLPAVLLALLAPRKIPTEDEYTDRPSQPST; PEPTIDE Peptide L-T6Bp-1)
RAW264.7 cells; 30 ng/ml RANKL, 4 days, 1, 30 or 100 μM peptide (FIG. 2B)
  RANKL-mediated osteoclast differentiation: dose-dependent inhibition
RAW264.7 cells; RANKL, 100 μM peptide, cells still TRAP positive (FIG. 2B)
  multi-nucleated osteoclasts: multi-nucleated osteoclast were not observed
RAW264.7 cells; RANKL, increasing amounts of peptide, 4-5 days (FIG. 2C)
  number of TRAP positive osteoclasts: dose-dependent decrease
[1]
  TRAF5 binding to the cytoplasmic domain of RANK: neither L-T6DP-1 nor L-T6DP-2 inhibited
JNK
  RANKL-mediated JNK activation: capable of inhibiting
ERK
  RANKL-induced ERK activation: able to block
p38 kinase
  RANKL-induced p38 kinase activation: able to block
